# Laboratory results: patent US10525269B2, “Methods for improving heart function” (THE JOHNS HOPKINS UNIVERSITY, priority 2010, dated 2020)
# “Also recorded” adds a separate entry of the source.
# Key:
# [1] = Pearce (2009); cited from earlier work
# isolated myocytes = assay: Myocyte sarcomere shortening and whole-cell calcium transients; type: cell-based, dog; set-up: effect of PTX on zinterol-stimulated shortening and Ca2+ transients: dose or concentration left out as unconfirmed
# Procedure: Myocyte sarcomere shortening and whole-cell calcium transients were assessed with an inverted microscope (Ellipse TE2001, Nikon) equipped with an image-fluorescence system (MyoCam, IonOptix).
# Adenovirus-mediated gene transfer of GFP, RGS2, or RGS3 was implemented by adding a minimal volume of the FBS-free MEM containing the gene-carrying adenovirus (100 multiplicities of infection). The full volume of FBS-free MEM was supplied after culture for another 1 to 2 hours. RGS expression and myocyte functional changes were assessed at 24 hours after transfection.
# cAMP = assay: Membrane-localized cAMP FRET probe (ICUE3) in isolated myocytes; type: cell-based, dog; settings: in presence of IBMX
# Text: Adult myocytes were infected with an adenovirus expressing either the modified EPAC-based cAMP FRET sensor (ICUE3) (DiPilato et al. (1999) J Biol Chem. 274:22048-22052) or SR-localized PKA activity sensor SR-AKAR3 (Liu et al. (2011) Biochem Biophys Res Commun. 404:581-586). Just before study, cells were washed two times with Hanks' balanced salt solution and imaged at room temperature in the dark. Dual-emission ratio imaging used a 420DF20 excitation filter, a 450DRLP dichroic mirror, and two emission filters (475DF40 for cyan fluorescent protein and 535DF25 for yellow fluorescent protein) and was performed on a Zeiss Axiovert 200 M microscope with a MicroMAX BFT512 cooled charge-coupled device camera (Roper Scientific) controlled by MetaFluor 6.2 software (Universal Imaging). […]
# To further clarify the nature of the altered β2-AR signalling, studies were performed in isolated myocytes infected with an adenovirus containing a plasma membrane-targeted adenosine 3′,5′-monophosphate (cAMP)-sensitive fluorescence resonance energy transfer (FRET) probe (ICUE3) based on the EPAC1 (exchange protein directly activated by cAMP 1) binding domain (FIG. 6A; DiPilato et al. (1999) J Biol Chem. 274:22048-22052). […]
# PKA = assay: SR-localized PKA activity FRET sensor (SR-AKAR3) in myocytes; type: cell-based, dog
# Text: Adult myocytes were infected with an adenovirus expressing either the modified EPAC-based cAMP FRET sensor (ICUE3) (DiPilato et al. (1999) J Biol Chem. 274:22048-22052) or SR-localized PKA activity sensor SR-AKAR3 (Liu et al. (2011) Biochem Biophys Res Commun. 404:581-586). Just before study, cells were washed two times with Hanks' balanced salt solution and imaged at room temperature in the dark. Dual-emission ratio imaging used a 420DF20 excitation filter, a 450DRLP dichroic mirror, and two emission filters (475DF40 for cyan fluorescent protein and 535DF25 for yellow fluorescent protein) and was performed on a Zeiss Axiovert 200 M microscope with a MicroMAX BFT512 cooled charge-coupled device camera (Roper Scientific) controlled by MetaFluor 6.2 software (Universal Imaging). Fluorescent images (taken every 20 to 30 s) were background-corrected by subtracting autofluorescence intensities of untransfected cells (or background with no cells) from the emission intensities of cells expressing reporters.
# To further clarify the nature of the altered β2-AR signalling, studies were performed in isolated myocytes infected with an adenovirus containing a plasma membrane-targeted adenosine 3′,5′-monophosphate (cAMP)-sensitive fluorescence resonance energy transfer (FRET) probe (ICUE3) based on the EPAC1 (exchange protein directly activated by cAMP 1) binding domain (FIG. 6A; DiPilato et al. (1999) J Biol Chem. 274:22048-22052). After 24 hours, cells were stimulated with either zinterol or fenoterol, each in the presence of a broad-spectrum phosphodiesterase (PDE) inhibitor, IBMX. […] Previous studies have proposed that reduced Gαi coupling to the β2-AR can modify the targeting of cAMP, resulting in enhanced protein kinase A (PKA) activation of sarcoplasmic reticulum (SR) calcium handling proteins and thus augmentation of the Ca^2+ and associated myocyte shortening (Kuschel et al. (1999) J. Biol. Chem. 274:22048-22052).
compound,measurement,setting,value
"CC(Cc1ccc(O)cc1)NCC(O)c1cc(O)cc(O)c1 (single isomer, unassigned) [fenoterol as a mixture of R,R-enantiomer and S,S-enantiomer, fenoterol]",mortality in asthma use,[1],worsened death
CC(Cc1ccc(O)cc1)NCC(O)c1cc(O)cc(O)c1 (stereo not shown) [fenoterol],fenoterol response compared with zinterol alone,isolated myocytes; HFdys and HFsyn,augmented over zinterol alone
same,fenoterol-stimulated cAMP response (FRET ratio),cAMP; all groups,all responded similarly; also recorded: similarly elevated response
same,PKA activation at the SR,PKA; cells from all models,PKA activation was detected
same,PKA activation at the SR,"PKA; cells from all models, listed as Fenoterol",stimulated PKA at the SR in all models
CC(C)NCC(O)c1ccc(O)c(O)c1 (stereo not shown) [isoproterenol],"isoproterenol-stimulated shortening, relaxation, and peak calcium","isolated myocytes; AVA myocytes, compared with CRT",similar
same,"isoproterenol-stimulated sarcomere shortening and relengthening, peak Ca2+ transient and decay rate",isolated myocytes; myocytes from HFdys or HFsyn,equally depressed; also recorded: markedly and similarly depressed
same,"isoproterenol-stimulated sarcomere shortening and relengthening, peak Ca2+ transient and decay rate","isolated myocytes; myocytes from resynchronization models (CRT, V3A3)",back to near-control levels; also recorded: returned to control levels
CC(C)(Cc1ccccc1)NCC(O)c1ccc(O)c(NS(C)(=O)=O)c1 (stereo not shown) [zinterol],response to zinterol,isolated myocytes; AVA cells,responded robustly
same,shortening and Ca2+ transient response to zinterol,isolated myocytes; cells from resynchronized hearts,enhanced responses
same,zinterol-stimulated cAMP increase (FRET ratio),cAMP; resynchronization models vs other groups incl. control,exceeded that in the other groups; also recorded: greater response
same,PKA activation at the SR,PKA; CRT cells,activation was detectable; also recorded: showed PKA activation
same,PKA stimulation detected at the SR,PKA; myocytes from HFdys or HFsyn,negligible PKA stimulation
pertussis toxin [PTX],effect of PTX on zinterol-stimulated functional or Ca2+ response,isolated myocytes; AVA myocytes,not further altered; also recorded: minimal augmentation
same,effect of PTX pretreatment on isoproterenol-stimulated sarcomere shortening (% SS) and whole-cell calcium transient,isolated myocytes; HFdys and HFsyn,greatly enhanced both behaviors
same,effect of PTX on zinterol-stimulated shortening and Ca2+ transients,isolated myocytes; cells from HFdys and HFsyn,greatly amplified the response; also recorded: marked augmentation
same,effect of PTX on zinterol-stimulated shortening and Ca2+ transients,"isolated myocytes; cells from resynchronized hearts (CRT, V3A3)",little changed
same,effect of PTX on zinterol-stimulated shortening and Ca2+ transients,isolated myocytes; control myocytes,augmented zinterol-stimulated shortening and Ca^2+ transients slightly
same,effect of PTX pretreatment on isoproterenol-stimulated sarcomere shortening (% SS) and whole-cell calcium transient,isolated myocytes; resynchronized models,no impact
